Patent US9527885B2, “Hepatitis C virus inhibitors” (BRISTOL-MYERS SQUIBB COMPANY, priority 2011, dated 2016)
Read-outs that look alike come from different tables or passages of the source.

Key:
[1] = test system: HCV genotype 1b (Con1) replicon in HUH-7 cells; assay: HCV replicon luciferase reporter assay, genotype 1b; type: cell-based; settings: HCV genotype 1b replicon luciferase, 3 days incubation
Procedure, shortened: (§1)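 Twenty-point, threefold compound titrations (0.5% DMSO) were incubated 3 days at 37 °C with 3.0×10^3 HUH-7 cells/well in 4% FCS. The cells stably carried luciferase replicons: genotype 1b Con1 (S1179I) or 1a H77 (NS3 P1496L, NS5A S2204I). Renilla signal was read after 2 h with 7.5 μM EnduRen, and EC50 was taken from a four-parameter logistic fit. Cytotoxicity (CC50) was measured by Cell Titer-Blue, 8 h.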

[2] = test system: HCV genotype 1a (H77 strain) replicon in HUH-7 cells; assay: HCV replicon luciferase reporter assay, genotype 1a; type: cell-based; settings: HCV genotype 1a replicon luciferase, 3 days incubation
Procedure, shortened: as §1

[3] = Hepatitis C virus, 72 h, class symbols, read-out: LE_1b (EC50, range)
[4] = Hepatitis C virus, Huh-7, 72 h, class symbols, read-out: LE_1a (EC50, range)

Compound | EC50 [1, 3] | EC50 [2, 4] | other results
CC[C@@H]1C[C@H](C)CC/C=C\[C@@H]2C[C@@]2(C(=O)NS(=O)(=O)C2CC2)NC(=O)[C@@H]2C[C@@H](Oc3ncc(OC)c4ccccc34)CN2C(=O)[C@H]1NC(=O)OC(C)(C)C(F)(F)F [Compound 4008, 1,1,1-trifluoro-2-methylpropan-2-yl (2R,6S,7R,9R,13aS,14aR,16aS,Z)-14a-(cyclopropylsulfonylcarbamoyl)-7-ethyl-2-(4-methoxyisoquinolin-1-yloxy)-9-methyl-5,16-dioxo-1,2,3,5,6,7,8,9,10,11,13a,14,14a,15,16,16a-hexadecahydrocyclopropa[e]pyrrolo[1,2-a][1,4]diazacyclopentadecin-6-ylcarbamate] | < 5.46 nM | < 5.46 nM | –
CC[C@@H]1C[C@H](C)CC/C=C\[C@@H]2C[C@@]2(C(=O)NS(=O)(=O)C2CC2)NC(=O)[C@@H]2C[C@@H](Oc3ncc(OC)c4ccc(F)cc34)CN2C(=O)[C@H]1NC(=O)OC(C)(C)C [Compound 4001, tert-butyl tert-butyl (2R,6S,7R,9R,13aS,14aR,16aS,Z)-14a-(cyclopropylsulfonylcarbamoyl)-7-ethyl-2-(7-fluoro-4-methoxyisoquinolin-1-yloxy)-9-methyl-5,16-dioxo-1,2,3,5,6,7,8,9,10,11,13a,14,14a,15,16,16a-hexadecahydrocyclopropa[e]pyrrolo[1,2-a][1,4]diazacyclopentadecin-6-ylcarbamate] | < 5.46 nM | < 5.46 nM | –
CC[C@@H]1C[C@H](C)CC/C=C\[C@@H]2C[C@@]2(C(=O)NS(=O)(=O)C2(CF)CC2)NC(=O)[C@@H]2C[C@@H](Oc3nccc4c5c(ccc34)N(C)CCO5)CN2C(=O)[C@H]1NC(=O)OC(C)(C)C(C)(F)F [Compound 5324, 3,3-difluoro-2-methylbutan-2-yl ((2R,6S,7R,9R,13aS,14aR,16aS,Z)-7-ethyl-14a-(((1-(fluoromethyl)cyclopropyl)sulfonyl)carbamoyl)-9-methyl-2-((4-methyl-3,4-dihydro-2H-[1,4]oxazino[2,3-f]isoquinolin-7-yl)oxy)-5,16-dioxo-1,2,3,5,6,7,8,9,10,11,13a,14,14a,15,16,16a-hexadecahydrocyclopropa[e]pyrrolo[1,2-a][1,4]diazacyclopentadecin-6-yl)carbamate] | – | – | EC50 ([1]; Hepatitis C virus, 72 h, range class, read-out: LE_1b (EC50, range)): < 5.46 nM; EC50 ([2]; Hepatitis C virus, Huh-7, 72 h, range class, read-out: LE_1a (EC50, range)): < 5.46 nM
1,1,1-trifluoro-2-methylpropan-2-yl ((2R,6S,7R,9S,13aS,14aR,16aS,Z)-7-ethyl-14a-(((1-(fluoromethyl)cyclopropyl)sulfonyl)carbamoyl)-9-methyl-2-((4-methyl-3,4-dihydro-2H-[1,4]oxazino[2,3-f]isoquinolin-7-yl)oxy)-5,16-dioxo-1,2,3,5,6,7,8,9,10,11,13a,14,14a,15,16,16a-hexadecahydrocyclopropa[e]pyrrolo[1,2-a][1,4]diazacyclopentadecin-6-yl)carbamate [Compound 5319] | – | – | EC50 ([1]; read-out: LE_1b (EC50)): 14.2 nM; EC50 ([2]; read-out: LE_1a (EC50)): 33.6 nM
